# Laboratory results as given in US20040029953A1, “Use of neuropeptide-y antagonists in treatment of alcoholism” (priority 2000, published 2004).
# Entries after “also recorded” stand apart in the source; their conditions may differ.
# Tests used:
# rats = details: cited from earlier work
# [1] = test system: rats trained to self-administer ethanol vs. water; assay: Microinjection in the central nucleus of the amygdala (CeA), ethanol vs. water self-administration; type: in vivo, rat
# Protocol: FIG. 4 depicts a dose response curve showing the effects the NPY-Y1 antagonist BIBP 3226 in the central nucleus of the Amygdala.
# To further elucidate the role of NPY receptors in alcohol-seeking behavior, the NPY-Y1 […] BIBP 3226 was injected in the central nucleus of the amygdala (CeA) of rats trained to self-administer ethanol vs. water as described (Kelley et al., 2001 Peptides 22: 515-522). The CeA was chosen as an additional test site because, in addition to the hypothalamus, this brain region contains significant numbers of NPY receptors.
# Long-Evans rats = assay: Ethanol (10% v/v) vs. water self-administration after infusion in the PVN, sucrose-faded rats with long-term ethanol history; type: in vivo, rat
# Source text: The effectiveness of known NPY receptor antagonists and NPY Y1-selective or Y5selective receptor antagonists in reducing craving for alcohol and reducing self-administration of alcohol can be tested in experimental animal models. Briefly, Long-Evans rats are conditioned to the laboratory environment and trained to self-administer concurrent ethanol (10% v/v) vs. water using a sucrose-fading procedure (H. H. Samson, Alcohol Clin. Exp. Res., 1986, 10:436442) as described by Hodge et al. (Alcohol, 1993, 10:191-196). Stereotaxic surgery is performed to implant injector guide cannulae aimed at the PVN. Microinjections of test compounds are given, with and without concomitant injection of NPY, into the PVN of the conditioned rats, which are then immediately given the opportunity to self-administer either water or ethanol (10% v/v). The volume of ethanol and water consumed are measured. Ethanol intake is converted from milliliters consumed to gram/kilogram body weight. Relative ethanol intake (preference) is calculated as […] of ethanol consumed divided by total fluid intake (ethanol+water […]). Drug dose effects are analyzed by one-way repeated measures analysis of variance (ANOVA). Post-hoc comparisons between drug doses and vehicle control are conducted using a paired t-test or Dunnett's t-test where appropriate (SigmaStat, Jandel, San Rafael, Calif.).
# Animals. Thirty-six male Long-Evans rats (Harlan, Indianapolis, Ind.) were housed individually in Plexiglas cages. Access to water was restricted during the first day of behavioral training, but was continuously available for the remainder of the experiment. Food was always available in the home cage. In experimental chambers, ethanol (10% v/v) and water were available concurrently during daily (M-F) sessions. The animal colony room was maintained on a 12L:12D cycle with the lights on at 06:30. Experimental sessions were run during the light portion of the cycle. All experimental procedures were conducted under institutional and NIH guidelines.
# Apparatus. Experimental sessions were conducted in Plexiglas chambers (27×37×21 cm) located in sound-attenuating cubicles (MED Associates, model ENV 016M, Lafayette, Ind.). Chambers were equipped with exhaust fans that masked external noise. The right wall of each chamber contained two 50-ml drinking bottles. Drug solutions were administered bilaterally through stainless steel injectors (Plastics One, Roanoke, Va.), which were connected via plastic tubing to two 1.0 μl syringes (Hamilton, Reno, Nev.). Syringes were mounted on a micro-infusion pump (Harvard Apparatus, Model 22, Natick, Mass.) set to deliver 0.5 μl/min/syringes.
# Self-administration procedures. After 2 weeks of adaptation to laboratory housing conditions, fluid access was restricted to 1-h per day (for 2 days only) and two groups of rats (n=12 per group) were trained to drink from the bottles in the experimental chambers by overnight access to sucrose (10% w/v) vs. water during one overnight session. Daily 1 hour sessions were then conducted with sucrose (10% w/v) vs. water available concurrently. The location (i.e., left or right side of the chamber) of the sucrose and water solutions was alternated daily. When sucrose and water intake patterns stabilized, the rats were trained to self-administer concurrent ethanol (10% v/v) vs. water using a sucrose-fading procedure (H. H. Samson, Alcohol Clin. Exp. Res., 1986, 10:436-442) as previously described (e.g., Hodge et al., 1993). Briefly, ethanol was gradually added to the sucrose solution and then sucrose was faded out of the solution until rats were self-administering 10% ethanol vs. water. During the 2-month sucrose-fading procedure, the location of the ethanol/sucrose solution and water were alternated daily.
# Y1 receptor = target: T1, Y1 receptor (Homo sapiens, UniProt P25929); details: cited from earlier work
# T1 sequence (P25929 1-384): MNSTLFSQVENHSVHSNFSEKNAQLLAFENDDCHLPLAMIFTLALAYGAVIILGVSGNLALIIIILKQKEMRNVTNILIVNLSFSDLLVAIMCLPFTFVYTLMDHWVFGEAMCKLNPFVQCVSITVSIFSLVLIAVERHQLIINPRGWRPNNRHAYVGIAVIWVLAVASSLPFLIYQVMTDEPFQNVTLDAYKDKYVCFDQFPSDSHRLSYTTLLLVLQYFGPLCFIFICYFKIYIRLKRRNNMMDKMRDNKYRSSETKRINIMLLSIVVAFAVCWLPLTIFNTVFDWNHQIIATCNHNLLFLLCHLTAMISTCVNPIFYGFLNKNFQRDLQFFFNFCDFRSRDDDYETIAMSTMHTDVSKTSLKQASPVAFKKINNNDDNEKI
# [2] = BIBP 3226 (10.6 μm) alone in the PVN
molecule,measurement,setting,value
"N=C(N)NCCC[C@@H](NC(=O)C(c1ccccc1)c1ccccc1)C(=O)NCc1ccc(CNC(N)=O)cc1.O=C(O)C(F)(F)F [BIBO 3304, (R)-N-[[4-(aminocarbonylaminomethyl)-phenyl]methyl]-N^2-(diphenylacetyl)arginine amide trifluoroacetate]",food intake induced by application of NPY or by fasting,rats; rats,significantly inhibits food intake
"N=C(N)NCCC[C@@H](NC(=O)C(c1ccccc1)c1ccccc1)C(=O)NCc1ccc(O)cc1 [BIBP 3226, (R)-N^2-(diphenylacetyl)-N-[(4-hydroxyphenyl)methyl]-D-arginine amide]",dose of self-administered ethanol,"[1]; BIBP 3226 in the CeA, highest dose, 1-hour sessions, vs vehicle, p<0.05",reduced ethanol self-administration after infusion of the highest dose; also recorded: significantly reduced alcohol self-administration; also recorded: significantly reduced the dose of alcohol that was self-administered
same,water intake,[1]; BIBP 3226 injected in the CeA,no effect on water intake
same,ethanol intake,Long-Evans rats; [2],no significant effect
same,ethanol preference,Long-Evans rats; [2],no significant effect
same,water intake,Long-Evans rats; [2],no significant effect
same,NPY-induced increase in ethanol intake,Long-Evans rats; BIBP 3226 co-administered with NPY (10 fmol) in the PVN,completely blocked
NPY 2-36: an N-terminal truncated NPY fragment,affinity for the Y1 receptor subtype,Y1 receptor,low potency
[Pro^34]-NPY: Y1 agonist that stimulates feeding,food intake relative to that seen following the injection of NPY,"rats; rat, in vivo",approximately 50%
